Laboratory results published in US10898567B2, “Synthetic long peptides (SLP) for therapeutic vaccination against Hepatitis B virus infection” (priority 2014, dated 2021).

Test system: PBMC derived from HBV-immune donors
Type: cell-based, human
Conditions: six HBV-immune donors; for positive IFNγ response (SI>3) in HBV-immune donors / IFNγ response in multiple HBV-immune donors: IFNγ-ELISpot; for IFNγ response in multiple HBV-immune donors: SI>3; for average SI of the IFNγ-responses: PBMC pre-stimulated with 3 nmol/ml peptide for 72 hours
Method: To detect antigen-specific IFNγ-producing human T cells, the PBMC were first pre-stimulated with 3 nmol/ml of the indicated peptide for 72 hours at 37° C. […] After stimulation of the PBMC, the coating antibody was aspirated from the plate, and washed 4 times with PBS. To block aspecific binding, 100 μl of IMDM containing 8% FCS was added to all wells and incubated at 37° C. for 1 hour. In the meantime, stimulated PBMC were harvested, centrifuged, resuspended in X-vivo 15 medium (Lonza) and counted. […] The medium in the wells of the PVDF plate was aspirated and 100 μl of each PBMC sample was added to the plate in quadruplicates. The plates were incubated at 37° C. overnight. The next day, the supernatant was discarded and plates are washed 6 times with PBS/Tween20 0.05%. […] Next, plates were washed 6 times using PBS/Tween20 0.05% and 1 μg/ml Extravidin-Alkaline phosphatase (ALP) (Sigma-Aldrich) was added to all wells (100 μl/well) in PBS with 1% FBS. The plates were incubated for 1 hour at RT. ALP substrate solution BCIP/NBT-plus (Mabtech) was prepared and 100 μl/well was added to all wells after the plates were washed 4 times with PBS/Tween20 0.05%. To terminate the colorimetric reaction (after 1-20 minutes), tap water was used to wash the plates extensively. After drying, the formed spots were measured on a Biosys Bioreader 5000.
To assess the relevance of the selected vaccine peptides for the clearance of a naturally occurring HBV infection, we tested the presence of T cell responses against the 13 selected HBV peptides in PBMC derived from six HBV-immune donors. After isolation of the PBMC, cells were stimulated with each of the 13 peptides and an IFNγ-ELISpot was performed to detect T cell responses.

Sequence	positive IFNγ response (SI>3) in HBV-immune donors	IFNγ response in multiple HBV-immune donors	average SI of the IFNγ-responses
CAFSSAGPCALRFTSARRMETTVNAHQILPKVLHK [SLP27]	Responses were observed	–	–
NLLSSNLSWLSLDVSAAFYHIPLHPAAMPHLLIGSSGL (HBV Polymerase aa 419 - 456 (SLP No. 10)) [SLP10]	Responses were observed	induced responses in multiple donors	2.40
YPALMPLYACIQAKQAFTFSPTYKAFLSKQYMNLYPVAR (HBV Polymerase aa 653 - 691 (SLP No. 18)) [SLP18]	Responses were observed	–	1.86
SPFLLAQFTSAICSVVRRAFPHCLAFSYMDDVVLGA (HBV Polymerase aa 524 - 559 (SLP No. 14)) [SLP14]	Responses were observed	–	1.97
ALPSPSPSAVPADHGAHLSLRGLPVCAFSSAGP [SLP26]	Responses were observed	–	1.56
HDSCSRQLYVSLMLLYKTYGWKLHLYSHPIVLGF (HBV Polymerase aa 481 - 514 (SLP No. 13)) [SLP13]	Responses were observed	induced responses in multiple donors	2.44
DPASRDLVVNYVNTNVGLKIRQLLWFHISCLTFGR (HBV Core aa 107 - 141 (SLP No. 24)) [SLP24]	Responses were observed	induced responses in multiple donors	2.54
VVNHYFQTRHYLHTLWKAGILYKRETTRSASFCGSPYSW (HBV Polymerase aa 139 - 177 (SLP No. 5)) [SLP5]	Responses were observed	–	2.11
MPLSYQHFRKLLLLDDGTEAGPLEEELPRL (HBV Polymerase aa 1 - 30 (SLP No. 1)) [SLP1]	–	–	1.21
SSWAFAKYLWEWASVRFSWLSLLVPFVQWFV (HBV large surface protein aa 328-358) [SLP34]	Responses were observed	induced responses in multiple donors	3.02
